Measurements from patent US9657071B2, “IgE peptide vaccine” (NIPPON ZENYAKU KOGYO CO., LTD., priority 2012, dated 2017).

Tests used:
[1] = test system: Dermatophagoides farinae antigen-specific IgE; assay: Treatment experiment, artificially sensitized dogs: Dermatophagoides farinae antigen-specific IgE (ELISA); assay type: in vivo, dog; conditions: artificially sensitized beagles, s.c. 1 mg five times; one individual (04-95) of 4
Protocol: Dog: 8 artificially sensitized beagles (1 to 8 years old; 4 males and 4 females) were used. The ages and numbers of these 8 dogs were as follows:
Artificial sensitization: 400 μg of a Dermatophagoides farinae antigen (GREER) and 1 mg of an alum adjuvant (LSL) were subcutaneously administered at a 2-week interval, and IgE against the Dermatophagoides farinae antigen was confirmed by ELISA.
Grouping: on the basis of the ELISA results of IgE, the dogs were divided into 2 groups each involving 4 individuals uniformly distributed in terms of their IgE levels and ages.
Vaccine: the M4-7-11 peptide was used alone without being conjugated.
Administration method: 1 mg (500 μL of 2 mg/mL) per dose was subcutaneously administered five times at 2-week intervals.
Evaluation: serum was collected, and an IgG antibody against human IgE was assayed by ELISA. […] The IgE antibody against Dermatophagoides farinae was evaluated by ELISA.
The Dermatophagoides farinae antigen was prepared at 5 μg/mL in an immobilization buffer (0.05 M carbonate buffer, pH 9.6), then added at a concentration of 100 μL/well to an ELISA plate, and left overnight at 4° C. […] Then, the measurement was performed using a plate reader (Bio-Rad Laboratories, Inc.; model 680) (dual: measurement: 450 nm, control: 570 nm).

[2] = test system: dog IgG; assay: Reactivity of serum of peptide-immunized rabbit with dog IgG (ELISA); assay type: in vivo; conditions: 500 μg peptide + complete adjuvant s.c.
Protocol: 2 mL of the 250 μg/mL peptide (a total of 500 μg) used in Example 2 was mixed with an equal amount of a complete adjuvant (a total of 4 mL). Each rabbit was immunized with this mixture by the subcutaneous administration (amount of the peptide: 500 μg) at day 0 and weeks 2, 4, 6, and 8. Blood was collected 5 weeks after the week-8 administration (week 13 counted from day 0). Booster immunization was performed at week 14 counted from day 0, and blood was further collected 2 weeks thereafter (week 16 counted from day 0). Antibody titers in the collected blood were measured by ELISA. The serum of a rabbit that received no peptide was used as a control.
ELISA was performed by the following method: each […] recombinant CH3 solution of dog IgE, human IgE, mouse IgE, dog IgG, and cat IgE was immobilized at a concentration of 100 μL/well (100 ng/well) to a plate. The serum collected from the immunized rabbit was used (×200 to ×102400) as a primary antibody. An enzyme-labeled anti-rabbit IgG antibody (Zymed Laboratories Inc.) was used as a secondary antibody.

## KKTSVSASQWYTKHHNNATT (listed as Mus musculus) [M4-7-11]
[1]
  serum concentration of Dermatophagoides farinae antigen-specific IgE: reduction in the serum concentration of IgE was confirmed in one individual

## QEKKTSVSASQWYTKHHNNATTSIT (listed as Mus musculus) [MOUSE CH3-4-17-11]
[2]
  response of immobilized dog IgG to peptide-administered rabbit serum: responded to neither
